Results on 84 compounds are retold here after ChEMBL document CHEMBL4017441, “Mitigating the inhibition of human bile salt export pump by drugs: opportunities provided by physicochemical property modulation, in silico modeling, and structural modification” (Drug Metab Dispos, 2012).

In this test the target is Bile salt export pump (Homo sapiens, UniProt O95342). Type of test: ADME.

On to `CCCCNc1ccc(C(=O)OCCN(C)C)cc1` [TETRACAINE], for which the IC50 worked out at 513 µM. Take `CNCCCC1c2ccccc2C=Cc2ccccc21` [PROTRIPTYLINE]: the half-inhibitory concentration (IC50) is 129 µM.

In the case of `O=c1ccc2ccccc2o1` [COUMARIN], the IC50 is above 1000 µM. As to `C=CCOc1ccccc1OCC(O)CNC(C)C` (centres undefined) [OXPRENOLOL], the IC50 is above 1000 µM. For `CC1=C(CC(=O)O)c2cc(F)ccc2/C1=C\c1ccc([S+](C)[O-])cc1` (centres undefined), the IC50 was 63.7 µM. For `O=C(O)c1cc2cc(O)ccc2n1Cc1ccc(Cl)c(C(F)(F)F)c1`, the IC50 was found to be 18.5 µM. On to `CC(C)COCC(CN(Cc1ccccc1)c1ccccc1)N1CCCC1` (centres undefined) [BEPRIDIL], for which the IC50 is below 16.5 µM. Take `O=C(O)c1cc2sccc2n1Cc1ccc(Cl)c(Cl)c1`: the IC50 came to 13.7 µM. Turning to `CC[C@@H](Nc1c(Nc2cccc(C(=O)N(C)C)c2O)c(=O)c1=O)c1ccc(C)o1` [NAVARIXIN ANHYDROUS], the IC50 is below 10 µM.

For the compound `Oc1c(I)cc(I)c2cccnc12` [IODOQUINOL], the IC50 is above 1000 µM.

In the case of `Cc1cc(-c2ccc(N3C[C@H](Cn4ccnn4)OC3=O)cc2F)on1`, the IC50 was above 1000 µM.

For the compound `CC(C(=O)O)c1ccc2oc(-c3ccc(Cl)cc3)nc2c1` (centres undefined) [BENOXAPROFEN], the IC50 worked out at 104 µM. Take `CCC(COC(=O)c1cc(OC)c(OC)c(OC)c1)(c1ccccc1)N(C)C` (centres undefined) [TRIMEBUTINE]: the IC50 was below 10 µM. In the case of `COc1ccccc1O` [GUAIACOL], the IC50 was above 1000 µM.

Regarding `CN(C)C(=O)Oc1cccc([N+](C)(C)C)c1` [NEOSTIGMINE], the IC50 is above 1000 µM.

As to `CCCc1c2nc(C(=O)O)cc(C(F)(F)F)c2cc2c(=O)cc(C(=O)O)oc12`, the IC50 was determined as 365 µM. In the case of `Clc1ccc(COC(Cn2ccnc2)c2ccc(Cl)cc2Cl)cc1` (centres undefined) [ECONAZOLE], the IC50 is below 10 µM. For the compound `C/C(=N\OC(C)(C)C(=O)O)c1csc(N)n1`, the IC50 was above 1000 µM. The value for `O=C(CCCN1CCC(O)(c2cccc(C(F)(F)F)c2)CC1)c1ccc(F)cc1` [TRIFLUPERIDOL] was 19.7 µM.

For `CCCCOCCOCCOCc1cc2c(cc1CCC)OCO2` [PIPERONYL BUTOXIDE], the IC50 is below 10 µM. The value for `O=C(O)CCCCC1CCSS1` (stereo not drawn) [LIPOIC ACID, ALPHA] was above 1000 µM; that for `CC(=O)O[C@H]1C[C@@]2(C)[C@@H](C[C@@H](O)[C@H]3[C@@]4(C)CC[C@@H](O)[C@@H](C)[C@@H]4CC[C@@]32C)/C1=C(\CCC=C(C)C)C(=O)O` [FUSIDATE SODIUM] was below 10 µM; that for `O=C(NC1CCN(CCc2c[nH]c3ccccc23)CC1)c1ccccc1` [INDORAMIN] was 109 µM. With `CN(C(=O)CN(CCO)CC(=O)N(C)C(C)(C)Cc1ccccc1)C(C)(C)Cc1ccccc1` [OXETHAZAINE], the IC50 was below 10 µM. `C[C@@H](COc1ccc(N2CCN(c3ccncc3)CC2)cc1)CC(=O)O`: the concentration for half-maximal inhibition (IC50) was above 1000 µM. As for `Cc1cccc(N(C)C(=S)Oc2ccc3ccccc3c2)c1` [TOLNAFTATE], the IC50 was below 10.3 µM. As to `C=CCN1CC[C@]23c4c5ccc(O)c4O[C@H]2C(=O)CC[C@@]3(O)[C@H]1C5` [NALOXONE], the IC50 was determined as 549 µM.

In the case of `O=C(Oc1ccccc1C(=O)O)c1ccccc1O` [SALSALATE], the IC50 is above 1000 µM. In the case of `CCS[C@]1(SC)CC[C@H]2[C@@H]3CCC4=CC(=O)C=C[C@]4(C)[C@@]3(F)[C@@H](O)C[C@@]21C`, the IC50 was below 10 µM. In the case of `C/C=C/C(=O)N(CC)c1ccccc1C`, the IC50 amounted to 110 µM. Turning to `Nc1ccc(CN2C(=O)C(Nc3ccc(N4CCOCC4)cc3)=C(c3ccccc3)C2=O)cn1`, the IC50 was below 10 µM. On to `Cc1ccccc1C(OCCN(C)C)c1ccccc1` (centres undefined) [ORPHENADRINE], for which the IC50 is above 1000 µM.

On to `N[C@@H]1C[C@H]1c1ccccc1.N[C@H]1C[C@@H]1c1ccccc1` [TRANYLCYPROMINE], for which the IC50 was above 1000 µM. Turning to `O=C(O)CCC(=O)Nc1ccc(S(=O)(=O)Nc2nccs2)cc1` [SUCCINYLSULFATHIAZOLE], the IC50 was above 1000 µM. The same measure for `O=C(O)c1cc(-c2ccccc2)nc2ccccc12` [CINCHOPHEN]: above 814 µM; for `CC(C)NCC(O)COc1ccc(CCOCC2CC2)cc1` (centres undefined) [BETAXOLOL]: above 1000 µM. The same measure for `CN1CCN(c2ccccc2/C=C2/SCCN(c3ccc(Cl)c(Cl)c3)C2=O)CC1`: below 10 µM; for `COc1ccc(C(CN(C)C)C2(O)CCCCC2)cc1` (centres undefined) [VENLAFAXINE]: above 1000 µM; for `CCCc1ccc(OCC(C)O)c2c(=O)cc(C(=O)O)oc12` (centres undefined): 271 µM. Consider `NNc1nncc2ccccc12` [HYDRALAZINE], for which the IC50 was above 1000 µM.

With `CCc1nc(N)nc(N)c1-c1ccc(Cl)cc1` [PYRIMETHAMINE], the IC50 was found to be 200 µM. As for `O=C1c2ccccc2S(=O)(=O)N1CCCCN1CCN(c2ncccn2)CC1` [IPSAPIRONE], the IC50 stood at 31.2 µM. On to `Clc1ccc(COC(Cn2ccnc2)c2ccc(Cl)cc2Cl)c(Cl)c1` (centres undefined) [MICONAZOLE], for which the concentration for half-maximal inhibition (IC50) is below 10 µM. `O=C(O[C@H]1C[N+]2(CCCOc3ccccc3)CCC1CC2)C(O)(c1cccs1)c1cccs1`: the IC50 came out at 127 µM. As to `CCCc1c(OCC(O)COc2ccc3c(=O)cc(C(=O)O)oc3c2CCC)ccc(C(C)=O)c1O` (centres undefined) [FPL-55712], the IC50 was below 10 µM. The same measure for `Nc1ccc(S(=O)(=O)Nc2ccc(Cl)nn2)cc1` [SULFACHLORPYRIDAZINE]: above 1000 µM. Regarding `CC(C)NNC(=O)c1ccncc1` [IPRONIAZID], the IC50 was above 953 µM. With `Cc1ccc(OC(C)(C)[C@H]2OC[C@@H](C/C=C\CCC(=O)O)[C@@H](c3cccnc3)O2)c(C#N)c1`, the IC50 is below 10 µM. In the case of `Cc1ccc2c(c1)c1c(n2CCc2ccc(C)nc2)CCN(C)C1` [LATREPIRDINE], the IC50 was found to be 136 µM. As for `COc1cccc(N2C(N)=NC(N)=NC23CCCCC3)c1`, the IC50 was above 1000 µM. With `C#C[C@]1(O)CC[C@H]2[C@@H]3CCC4=Cc5oncc5C[C@]4(C)[C@H]3CC[C@@]21C` [DANAZOL], the IC50 is below 10 µM. In the case of `CCN(CC)CCOc1ccc(C(=C(Cl)c2ccccc2)c2ccccc2)cc1` [CLOMIPHENE], the IC50 is below 10 µM. Take `CN1CCc2cccc3c2[C@H]1Cc1ccc(O)c(O)c1-3` (stereo in doubt; form 1) [APOMORPHINE]: the IC50 was determined as 211 µM. The same measure for `Cc1ccc(C(=O)Nc2ccc(S(=O)(=O)O)c3cc(S(=O)(=O)O)cc(S(=O)(=O)O)c23)cc1NC(=O)c1cccc(NC(=O)Nc2cccc(C(=O)Nc3cc(C(=O)Nc4ccc(S(=O)(=O)O)c5cc(S(=O)(=O)O)cc(S(=O)(=O)O)c45)ccc3C)c2)c1` [SURAMIN]: 107 µM; for `CCn1ccnc1CC1COc2ccccc2O1` (centres undefined) [IMILOXAN]: 61.7 µM. As to `O=C(NCC1CCCCN1)c1cc(OCC(F)(F)F)ccc1OCC(F)(F)F` (centres undefined) [FLECAINIDE], the IC50 was 218 µM. Regarding `CC(=O)OCC(=O)C1(O)C(C)CC2C3CC(F)C4=CC(=O)C=CC4(C)C3C(O)CC21C` (centres undefined), the IC50 was 33.6 µM. As to `CS(=O)(=O)c1ccc(C2=C(c3ccccc3)C(=O)OC2)cc1` [ROFECOXIB], the IC50 is 95.4 µM.

Regarding `Cc1ccc2c(c1)c(-c1ccnc3c(Cl)cccc13)c(C)n2CC(=O)O`, the half-inhibitory concentration (IC50) is below 10 µM. As for `CO[C@H]1C[C@@H]2CC[C@@H](C)[C@@](O)(O2)C(=O)C(=O)N2CCCC[C@H]2C(=O)O[C@H]([C@H](C)C[C@@H]2CC[C@@H](O)[C@H](OC)C2)CC(=O)[C@H](C)/C=C(\C)[C@@H](O)[C@@H](OC)C(=O)[C@H](C)C[C@H](C)/C=C/C=C/C=C/1C` [SIROLIMUS], the IC50 was below 10 µM.

For the compound `CN1CCC(OC(c2ccccc2)c2ccccc2)CC1`, the IC50 came to 509 µM. On to `Oc1ccc(CCNCCCCCCNCCc2ccccc2)cc1O` [DOPEXAMINE], for which the half-inhibitory concentration (IC50) was above 1000 µM. Turning to `Cc1ccc(NC(=O)c2ccc(CN3CCN(C)CC3)cc2)cc1Nc1nccc(-c2cccnc2)n1` [IMATINIB], the IC50 is below 10 µM. Regarding `Nc1ccc(S(=O)(=O)Nc2ncccn2)cc1` [SULFADIAZINE], the IC50 was above 1000 µM.

Turning to `CC[N+](C)(C)Cc1ccccc1Br` [BRETYLIUM], the IC50 was above 1000 µM.

Take `CCS(=O)(=O)c1ccc(-c2cc(Cl)ccc2OCC(=O)O)c(F)c1`: the IC50 was 168 µM. In the case of `CC1=C(/C=C/C(C)=C/C=C/C(C)=C/C=C/C=C(C)/C=C/C=C(C)/C=C/C2=C(C)CCCC2(C)C)C(C)(C)CCC1` [BETA CAROTENE], the IC50 is below 10 µM. As for `NC(=O)c1ccc([N+](=O)[O-])cc1Cl` [AKLOMIDE], the IC50 is above 1000 µM. Turning to `CC1COc2c(N3CCN(C)CC3)c(F)cc3c(=O)c(C(=O)O)cn1c23` (centres undefined) [OFLOXACIN], the IC50 was above 1000 µM. As for `CCCCOc1ccc(C(=O)CCN2CCCCC2)cc1` [DYCLONINE], the IC50 was found to be 275 µM. On to `CC(C)NCC(O)c1ccc(O)c(O)c1` (centres undefined) [ISOPROTERENOL], for which the IC50 was above 986 µM.

Turning to `CN=C(N)NC(=O)Nc1c(C)cccc1C` [LIDAMIDINE], the IC50 was above 1000 µM.

In the case of `CC(CN(C)C)CN1c2ccccc2Sc2ccccc21` (centres undefined) [METHYLPROMAZINE], the IC50 is 73.7 µM.

`CN[C@H]1C(O[C@H]2C(OC3C(O)C(O)C(NC(=N)N)C(O)C3NC(=N)N)OC(C)[C@]2(O)C=O)O[C@H](CO)[C@@H](O)[C@@H]1O` (some centres undefined): the concentration for half-maximal inhibition (IC50) is above 1000 µM. As to `O=C1CC2(CCCC2)CC(=O)N1CCCCN1CCN(c2ncccn2)CC1` [BUSPIRONE], the concentration for half-maximal inhibition (IC50) was determined as 59.6 µM. The same measure for `CCCc1c(OCCCCc2nnn[nH]2)ccc(C(C)=O)c1O` [TOMELUKAST]: below 10.7 µM. For `C[C@H](Oc1ccc(C(F)(F)F)cc1-c1ccc(S(C)(=O)=O)c(C(F)(F)F)c1)C(=O)O`, the IC50 came to 35.8 µM. The same measure for `CC(=O)NS(=O)(=O)c1ccc(N)cc1` [SULFACETAMIDE]: above 1000 µM; for `CC(C)Cc1ccc(C(C)C(=O)O)cc1` (centres undefined) [IBUPROFEN]: above 789 µM.

For `c1ccc(CN(CC2=NCCN2)c2ccccc2)cc1` [ANTAZOLINE], the IC50 is above 1000 µM.

As for `CCC1(C)CC(=O)NC1=O` (centres undefined) [ETHOSUXIMIDE], the IC50 was above 1000 µM.

As for `CC(N/C(=N\C#N)Nc1ccncc1)C(C)(C)C` (centres undefined) [PINACIDIL ANHYDROUS], the half-maximal inhibitory concentration (IC50) was determined as 161 µM.

For `CC1=C(C)C(=O)C(C(CCCCCC(=O)O)c2ccccc2)=C(C)C1=O` (centres undefined) [SERATRODAST], the half-maximal inhibitory concentration (IC50) is below 14.3 µM. For the compound `CC(C)(C)NCC(O)COc1cccc2c1CCC(=O)N2` (centres undefined) [CARTEOLOL], the IC50 was above 1000 µM.
